According to patent publication US20260199350A1, “FLAVONES, QUINOLINONES, QUINAZOLINONES, AND AURONES, AND USES IN CK2-MEDIATED DISEASES” (Salk Institute for Biological Studies, priority 2022, published 2026):
Like-named read-outs stand apart in the source and are kept apart here.

Key:
CK2A1 = biological target: T1, CK2A1 (Homo sapiens, UniProt P68400); experiment: Radiometric kinase assay (Eurofins), CK2A1; type: biochemical; settings: read-out: CK2A1 RAD IC50
T1 construct: purchased Eurofins
From the text: FIGS. 4A-4F characterize flavones for in vitro and in-cell CK2 inhibition. […] Representative of two independent experiments. […] Nonlinear fit was used to calculate IC50. […] Nonlinear fit was used to calculate IC50. […] Nonlinear fit was used to calculate IC50. […] Normalized to DMSO, data are representative of three independent experiments.
(§1) • ^1Radiometric kinase assay from Eurofins. Performed in astrocytes with a Promega Lumit IL-6 kit.

CK2A2 = biological target: T2, CK2A2 (Homo sapiens, UniProt P19784); experiment: Radiometric kinase assay (Eurofins), CK2A2; type: biochemical; settings: read-out: CK2A2 RAD IC50
T2 construct: purchased Eurofins
T2 sequence (P19784 whole entry): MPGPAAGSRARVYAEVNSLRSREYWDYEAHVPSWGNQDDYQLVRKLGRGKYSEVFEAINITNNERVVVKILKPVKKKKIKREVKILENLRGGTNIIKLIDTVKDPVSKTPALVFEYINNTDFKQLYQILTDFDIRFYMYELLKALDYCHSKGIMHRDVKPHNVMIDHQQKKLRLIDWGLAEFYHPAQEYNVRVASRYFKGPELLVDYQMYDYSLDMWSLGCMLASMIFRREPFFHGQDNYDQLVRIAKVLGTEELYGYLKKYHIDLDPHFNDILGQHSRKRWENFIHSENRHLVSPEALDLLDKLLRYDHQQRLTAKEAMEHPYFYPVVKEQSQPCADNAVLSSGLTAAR
From the text: as §1

IL-6 secretion = IL-6 secretion assay in astrocytes (Promega Lumit IL-6 kit); type: cell-based, human; settings: Homo sapiens, Astrocyte; Table 2; astrocytes; read-out: IL6-Inhib.
Protocol: IL-6 secretion assay. HCAs were plated at 20,000 cells per well in white clear bottom 96-well plates. Two to three days later, media was removed and replaced with media containing 10 ng/mL IL1B and compound dilution series. Five hours later, plates were processed using the Lumit IL-6 Assay Kit (Promega W6030) according to the manufacturer's instructions.
• ^1Radiometric kinase assay from Eurofins. Performed in astrocytes with a Promega Lumit IL-6 kit. A series of halogenated flavones was generated and assayed (Table 3).

T1 sequence (P68400 whole entry): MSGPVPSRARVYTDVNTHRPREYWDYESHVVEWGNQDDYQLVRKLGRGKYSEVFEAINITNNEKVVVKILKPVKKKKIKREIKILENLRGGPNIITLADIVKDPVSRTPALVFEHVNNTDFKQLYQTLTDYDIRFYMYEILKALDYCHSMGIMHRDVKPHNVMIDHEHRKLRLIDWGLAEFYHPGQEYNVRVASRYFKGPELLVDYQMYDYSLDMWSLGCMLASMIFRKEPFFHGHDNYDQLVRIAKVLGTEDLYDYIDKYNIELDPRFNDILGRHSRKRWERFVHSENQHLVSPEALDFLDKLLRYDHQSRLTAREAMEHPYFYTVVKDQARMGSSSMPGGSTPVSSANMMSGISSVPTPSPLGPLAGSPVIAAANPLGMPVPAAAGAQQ

Structure (SMILES)	IC50 (CK2A1; Table 12)	IC50 (CK2A2; Table 12)	IC50 (CK2A1; Table 8, quinazolinones)	IC50 (CK2A2; Table 8, quinazolinones)	further results
COc1ccc2c(c1Br)O/C(=C\c1ccc(O)c(OC)n1)C2=O [Compound 1188A]	465 nM	144 nM			
COc1cc(/C=C2\Oc3c(ccc(OC)c3Br)C2=O)ncc1O [Compound 1189A]	117 nM	149 nM			
COc1ccc2c(c1Br)O/C(=C\c1cc(Br)c(O)cn1)C2=O [Compound 1190B]	184 nM	46 nM			
O=C(O)c1ccc(/C=C2\Oc3c(Br)cccc3C2=O)cc1 [Compound 1210A]	703 nM	60 nM			
C#Cc1cc(-c2cc(=O)c3cc(Br)c(OC)c(Br)c3o2)ccc1O [Compound 1212A]	> 5000 nM	1260 nM			
O=C1/C(=C/c2ccc(O)c(C3CC3)c2)Oc2c(Br)cccc21 [Compound 1220A]	4450 nM	> 5000 nM			
C#Cc1cc(/C=C2\Oc3c(Br)cc(Br)cc3C2=O)ccc1O [Compound 1224A]	177 nM	77 nM			
COc1nc(/C=C2\Oc3c(Br)cccc3C2=O)ccc1O [Compound 1226A]	131 nM	91 nM			
C#Cc1cc(/C=C2\Oc3c(cc(Br)c(OC)c3Br)C2=O)ccc1O [Compound 1229A]	151 nM	49 nM			
C#Cc1cc(/C=C2\Oc3c(ccc(OC)c3Br)C2=O)ccc1O [Compound 1231A]	180 nM	206 nM			
COc1cc(/C=C2\Oc3c(Br)cccc3C2=O)ncc1O [Compound 1236B]	172 nM	141 nM			
O=C1/C(=C/c2cc(Br)c(O)cn2)Oc2c(Br)cccc21 [Compound 1237A]	67 nM	57 nM			
COc1cc(-c2cc(=O)c3cc(Br)cc(Br)c3o2)ncc1O [JKT.77A]					IC50 (CK2A1; Table 2): 21 nM; IC50 (CK2A2; Table 2): 19 nM; IC50 (IL-6 secretion): 6700 nM
O=c1cc(-c2ccc(O)c(C(F)(F)F)c2)oc2c(Br)cc(Br)cc12 [JKT.460A]					IC50 (CK2A1; Table 2): 609 nM; IC50 (CK2A2; Table 2): 129 nM; IC50 (IL-6 secretion): 3000 nM
O=c1cc(-c2cc(F)c(O)c(F)c2)oc2c(Br)cc(Br)cc12 [JKT.461B]					IC50 (CK2A1; Table 2): 76 nM; IC50 (CK2A2; Table 2): 32 nM; IC50 (IL-6 secretion): > 10000 nM
O=c1cc(-c2ccc(O)c(Br)c2)oc2c(Br)nc(Br)cc12 [JKT.909A]					IC50 (CK2A1; Table 4): 6 nM; IC50 (CK2A2; Table 4): 6 nM
O=c1cc(-c2cc(Br)c(O)cn2)oc2c(Br)cc(Br)cc12 [JKT.923A]					IC50 (CK2A1; Table 4): 11 nM; IC50 (CK2A2; Table 4): 8 nM
O=c1cc(-c2ccc(O)c(Br)c2)[nH]c2c(Br)cc(Br)cc12 [JKT.944A]					IC50 (CK2A1; Table 6, quinolinones): 128 nM; IC50 (CK2A2; Table 6, quinolinones): 123 nM
O=c1cc(-c2cc(Br)c(O)cn2)oc2c(Br)cccc12 [JKT.980A]					IC50 (CK2A1; Table 4): 53 nM; IC50 (CK2A2; Table 4): 55 nM

More lines, main results first:

IC50 (CK2A1; Table 12)	IC50 (CK2A2; Table 12)	IC50 (CK2A1; Table 8, quinazolinones)	IC50 (CK2A2; Table 8, quinazolinones)	Structure (SMILES)	further results
		4590 nM	> 5000 nM	Cn1c(-c2ccc(O)c(Br)c2)nc2c(Br)cccc2c1=O [JKT.866A]	
		> 5000 nM	> 5000 nM	Cn1c(-c2ccc(O)c(Cl)c2)nc2c(Br)cccc2c1=O [JKT.870A]	
		566 nM	649 nM	Cn1c(-c2cc(F)c(O)c(F)c2)nc2c(Br)cccc2c1=O [JKT.873A]	
		> 5000 nM	> 5000 nM	Cn1c(-c2ccc(O)c(C(F)(F)F)c2)nc2c(Br)cc(Br)cc2c1=O [JKT.874D]	
		> 5000 nM	> 5000 nM	Cn1c(-c2ccc(O)c(C(F)(F)F)c2)nc2c(Br)cccc2c1=O [JKT.875A]	
		> 5000 nM	> 5000 nM	COc1cc(-c2nc3c(Br)cc(Br)cc3c(=O)n2C)ccc1O [JKT.876A]	
		> 5000 nM	> 5000 nM	COc1cc(-c2nc3c(Br)cccc3c(=O)n2C)ccc1O [JKT.877A]	
		95 nM	242 nM	O=c1[nH]c(-c2ccc(O)c(Br)c2)nc2c(Br)nc(Br)cc12 [JKT.880B]	
		107 nM	99 nM	O=c1[nH]c(-c2cc(Br)c(O)cn2)nc2c(Br)cc(Br)cc12 [JKT.932F]	
		132 nM	105 nM	O=c1[nH]c(-c2ccc(O)c(Cl)n2)nc2c(Br)cc(Br)cc12 [JKT.956A]	
		27 nM	33 nM	COc1nc(-c2nc3c(Br)cc(Br)cc3c(=O)[nH]2)ccc1O [JKT.968C]	
		26 nM	33 nM	COc1nc(-c2nc3c(Br)cccc3c(=O)[nH]2)ccc1O [JKT.975A]	
		677 nM	900 nM	COc1nc(-c2nc3c(Br)cc(Br)cc3c(=O)n2C)ccc1O [JKT.983A]	
